In ChEMBL document CHEMBL1134711, “Pharmacophore-based discovery of 3,4-disubstituted pyrrolidines as a novel class of monoamine transporter inhibitors” (Bioorg Med Chem Lett, 2001) one finds Ki and IC50 data, which are given here for 17 molecules.

Test [1] deals with Sodium-dependent serotonin transporter (Rattus norvegicus, UniProt P31652). The experiment in a line: Inhibition of [3H]5-HT uptake at Serotonin transporter in rat mid brain.
In test [2] the target is Norepinephrine transporter (Rattus norvegicus, UniProt Q9WTR4). The experiment in a line: Inhibition of [3H]NE uptake at Norepinephrine transporter in rat parietal/occipital cortex was determined.
Norepinephrine transporter, sequence (Q9WTR4 whole entry): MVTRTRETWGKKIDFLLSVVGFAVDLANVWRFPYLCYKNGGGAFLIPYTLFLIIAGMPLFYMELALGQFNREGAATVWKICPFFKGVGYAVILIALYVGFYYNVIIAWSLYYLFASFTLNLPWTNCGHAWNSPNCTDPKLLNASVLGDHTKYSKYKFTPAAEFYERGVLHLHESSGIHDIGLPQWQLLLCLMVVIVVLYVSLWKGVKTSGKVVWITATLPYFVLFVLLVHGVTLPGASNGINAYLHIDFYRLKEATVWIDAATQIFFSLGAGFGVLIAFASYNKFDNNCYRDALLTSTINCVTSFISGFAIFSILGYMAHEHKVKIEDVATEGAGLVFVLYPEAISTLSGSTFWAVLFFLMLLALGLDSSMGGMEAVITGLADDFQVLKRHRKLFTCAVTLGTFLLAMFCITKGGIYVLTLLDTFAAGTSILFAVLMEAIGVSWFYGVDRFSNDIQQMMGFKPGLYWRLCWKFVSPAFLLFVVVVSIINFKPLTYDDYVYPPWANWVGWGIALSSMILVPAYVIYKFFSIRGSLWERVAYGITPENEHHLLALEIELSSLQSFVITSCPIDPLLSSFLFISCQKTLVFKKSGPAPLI
In test [3] the target is T1, Sodium-dependent dopamine transporter (Rattus norvegicus, UniProt P23977). In words: Inhibition of [3H]DA uptake at Dopamine transporter in rat cortex.
T1 sequence (P23977 whole entry): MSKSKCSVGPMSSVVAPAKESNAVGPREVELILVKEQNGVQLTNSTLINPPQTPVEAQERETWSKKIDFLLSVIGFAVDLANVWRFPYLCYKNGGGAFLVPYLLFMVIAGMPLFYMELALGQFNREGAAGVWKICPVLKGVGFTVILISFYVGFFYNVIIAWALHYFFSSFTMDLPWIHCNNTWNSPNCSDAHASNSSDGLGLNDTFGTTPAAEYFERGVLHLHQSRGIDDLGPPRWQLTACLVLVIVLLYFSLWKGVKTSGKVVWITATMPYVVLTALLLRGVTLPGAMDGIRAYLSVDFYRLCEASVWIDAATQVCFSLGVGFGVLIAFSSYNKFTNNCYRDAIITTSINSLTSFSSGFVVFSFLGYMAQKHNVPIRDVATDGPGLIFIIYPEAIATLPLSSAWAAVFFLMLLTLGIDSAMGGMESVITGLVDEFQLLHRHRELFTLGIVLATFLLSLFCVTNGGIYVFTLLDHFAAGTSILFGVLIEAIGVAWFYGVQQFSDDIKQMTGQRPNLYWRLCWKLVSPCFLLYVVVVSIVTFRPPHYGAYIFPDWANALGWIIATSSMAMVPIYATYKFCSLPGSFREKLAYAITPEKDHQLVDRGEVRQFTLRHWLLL
The nature of test [4]: In vitro Ki against [3H]mazindol binding.
Test [5] concerns the target T1, Sodium-dependent dopamine transporter. In words: Functional cocaine antagonism was evaluated by inhibition of [3H]dopamine reuptake at a concentration of 100 nM with cocaine.
For test [6] the target is unchanged. The experiment in a line: Functional cocaine antagonism was evaluated by inhibition of [3H]dopamine reuptake at a concentration of 300 nM with cocaine.
For test [7] the target is unchanged. In words: Functional cocaine antagonism was evaluated by inhibition of [3H]dopamine reuptake.
The target is the same in test [8]. In words: Functional cocaine antagonism was evaluated by inhibition of [3H]dopamine reuptake at a concentration of 30 nM with cocaine.

Sodium-dependent serotonin transporter, sequence (P31652 whole entry): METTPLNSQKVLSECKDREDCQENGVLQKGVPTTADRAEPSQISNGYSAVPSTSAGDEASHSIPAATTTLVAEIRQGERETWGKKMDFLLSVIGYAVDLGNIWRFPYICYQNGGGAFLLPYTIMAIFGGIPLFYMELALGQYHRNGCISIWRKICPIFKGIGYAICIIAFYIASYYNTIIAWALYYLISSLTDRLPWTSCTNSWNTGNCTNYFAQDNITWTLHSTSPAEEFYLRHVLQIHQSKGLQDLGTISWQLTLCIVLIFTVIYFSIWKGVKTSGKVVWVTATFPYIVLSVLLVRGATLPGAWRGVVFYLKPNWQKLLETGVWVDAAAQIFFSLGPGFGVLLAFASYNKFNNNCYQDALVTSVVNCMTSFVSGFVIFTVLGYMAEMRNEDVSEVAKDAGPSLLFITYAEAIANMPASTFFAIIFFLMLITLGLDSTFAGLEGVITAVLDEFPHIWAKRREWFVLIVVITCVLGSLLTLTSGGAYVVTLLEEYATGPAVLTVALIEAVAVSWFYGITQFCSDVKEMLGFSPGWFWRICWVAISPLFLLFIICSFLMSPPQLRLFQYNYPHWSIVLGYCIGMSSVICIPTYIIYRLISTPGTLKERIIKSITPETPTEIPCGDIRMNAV

By Ki is commonly meant a measure of affinity in units of concentration, obtained from inhibition or displacement. Low readings indicate tighter binding, high ones weaker binding. For the molecule `CN1C[C@@H](C(=O)c2ccc(F)cc2)[C@H](c2ccc(F)cc2)C1`, the inhibition constant Ki in test [1] worked out at 380 nM; in test [2], 800 nM; in test [3], 3960 nM.
`CN1C[C@@H](C(=O)c2ccc(Cl)cc2)[C@H](c2ccccc2F)C1` yielded an inhibition constant Ki in test [3] of 1280 nM.
On the same count and under the same terms, in the case of `COc1ccccc1C(=O)[C@@H]1CN(c2ccccc2)C[C@H]1c1ccc(Cl)cc1` it was above 10000 nM; in that of `COc1ccc(C(=O)[C@@H]2CN(C)C[C@H]2c2ccc(Cl)cc2)cc1`, 1160 nM.
Turning to `CN1C[C@@H](C(=O)c2ccc(Cl)cc2)[C@H](c2ccc(Cl)cc2Cl)C1`, the affinity in test [3] corresponds to a Ki of 1260 nM.
Molecule `Cc1ccc([C@@H]2CN(c3ccccc3)C[C@H]2C(=O)c2ccc(F)cc2)cc1` showed a Ki in test [3] above 10000 nM.
Still for that read-out and setting: in the case of `Cc1ccc([C@@H]2CN(C)C[C@H]2C(=O)c2ccccc2F)cc1` it was 1930 nM.
For the molecule `CN1C[C@@H](C(=O)c2ccc(Cl)cc2)[C@H](c2ccccc2)C1`, the Ki in test [4] turned out to be 1250 nM; in test [1], 520 nM; in test [2] it was 430 nM; in test [3], 1220 nM.
Taken in the same sequence, the figures for `CN1C[C@@H](C(=O)c2ccccc2Cl)[C@H](c2ccc(Cl)cc2)C1` were 340 nM, 540 nM, 69 nM and 610 nM.
A word on the IC50: it is the point on the concentration scale where inhibition reaches its midpoint. Regarding `CN1C[C@@H](C(=O)c2ccccn2)[C@H](c2ccccc2)C1`, the Ki amounted to 510 nM in test [4], 830 nM in test [1] and 630 nM in test [3]. The figures for the IC50 in test [5], in test [6] and in test [7] were 494 nM, 645 nM and 663 nM, respectively.
Take `CN1C[C@@H](C(=O)c2cccs2)[C@H](c2ccc(Cl)cc2)C1`: the IC50 in test [8] stood at 46 nM; in test [5], 641 nM; in test [7], 308 nM. For the same molecule, the Ki in test [4] is 84 nM; in test [1], 230 nM; in test [2], 31 nM; in test [3], 200 nM.
In the case of `O=C(c1ccccn1)[C@@H]1CN(c2ccccc2)C[C@H]1c1ccccc1`, the inhibition constant (Ki) in test [4], in test [1], in test [2] and in test [3] was above 10000 nM each time.
Take `CN1C[C@@H](C(=O)c2ccccc2)[C@H](c2ccccc2)C1`: the inhibitory constant (Ki) is 1180 nM in test [4], 750 nM in test [1], 150 nM in test [2] and 1410 nM in test [3].
`O=C(c1ccccc1)[C@@H]1CN(c2ccccc2)C[C@H]1c1ccc(Cl)cc1` displayed an inhibition constant (Ki) in test [3] above 10000 nM.
Turning to `O=C(c1cccs1)[C@@H]1CN(c2ccccc2)C[C@H]1c1ccccc1`, the Ki in test [4], in test [1], in test [2] and in test [3] was above 10000 nM throughout.
Turning to `CN1C[C@@H](C(=O)c2cccc(C(F)(F)F)c2)[C@H](c2ccc(Cl)cc2)C1`, in test [3], the affinity corresponds to a Ki of 3170 nM.
As for `COC(=O)[C@@H]1C2CC[C@@H](C[C@@H]1OC(=O)c1ccccc1)N2C` (single isomer, unassigned) [COCAINE], affinity in test [4] was put at a Ki of 230 nM. This lies in the sub-micromolar range.
